Experimental data as given in patent publication US20060089395A1, “Nf-kb activation inhibitors” (priority 2002, published 2006).
“Also recorded” adds a separate entry of the source. Read-outs that look alike come from different tables or passages of the source.

Tests used:
NF-κ B = assay: Inhibitory activity of NF-κ B activation, luciferase reporter assay in HepG2 under TNF-α stimulation; format: cell-based, human
Summary of the method: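 Readout is firefly luciferase luminescence, expressed as inhibition versus compound-free wells. Before this, HepG2 cells carrying a transiently transfected 5×NF-κB-site luciferase plasmid (6–24 h post-transfection) received test compound plus TNF-α (40 ng/ml) for 4 h.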

[1] = system: Vascular smooth muscle cells of normal coronary artery (Cryo CASMC); assay: Inhibitory test against proliferation of vascular smooth muscle cells of normal coronary artery under proliferation stimulation (MTS assay); format: cell-based; conditions: FGF and EGF stimulation, 72 hours
Method: Vascular smooth muscle cells of normal coronary artery (Cryo CASMC) were cultured for 2 hours in the presence or absence of a test substance in DMEM medium containing 0.5% of FBS and insulin (5 u g/ml). Then, FGF and EGF were added for proliferation stimulation. The mixture was cultured for 72 hours and proliferation of the cells were measured by the MTS assay. The results aree shown in the following

IL-6 = assay: Inhibition of IL-6 production by TNFα stimulation in synovial fibroblasts derived from a rheumatoid patient (ELISA); format: cell-based, human; conditions: for IC50: synovial fibroblasts, 10 ng/ml TNFα, 3 days, read-out: Inhibition against Mediator Release IC50(nM) IL-6; for inhibition of the production of IL-6 (in words): rheumatic patient-derived synovial fibroblasts under TNFα stimulation
Method: (§1) Synovial fibroblasts (Human Synoviocyte (RA-Positive), Toyobo, T4040-05) were cultured for 3 days in a medium containing 10 ng/ml of TNFα and a test compound. IL-6 and IL-8 in the supernatant were measured by the ELISA method, and PGE2 (prostaglandin E2) was measured by the EIA method.

IL-8 = assay: Inhibition of IL-8 production by TNFα stimulation in synovial fibroblasts derived from a rheumatoid patient (ELISA); format: cell-based, human; conditions: for IC50: synovial fibroblasts, 10 ng/ml TNFα, 3 days, read-out: Inhibition against Mediator Release IC50(nM) IL-8; for inhibition of the production of IL-8 (in words): rheumatic patient-derived synovial fibroblasts under TNFα stimulation
Method: as §1

PGE2 = assay: Inhibition of PGE2 production by TNFα stimulation in synovial fibroblasts derived from a rheumatoid patient (EIA); format: cell-based, human; conditions: for IC50: synovial fibroblasts, 10 ng/ml TNFα, 3 days, read-out: Inhibition against Mediator Release IC50(nM) PGE2; for inhibition of the production of PGE2 (in words): rheumatic patient-derived synovial fibroblasts under TNFα stimulation
Method: as §1

[2] = system: type II collagen induced arthritis; assay: Inhibitory test against type II collagen induced arthritis in mice; format: in vivo, Balb/c mice; conditions: 10 mg/kg intraperitoneally once in two days; day 44; score of the control = 100%
Method: Balb/c mice were immunized with heterologous type II collagen and Freund's complete adjuvant by subcutaneous or intraperitoneal injection. At 21 days after the treatment, these mice were immunized again with heterologous type II collagen and Freund's incomplete adjuvant by subcutaneous or intraperitoneal injection to develop arthritis.
A test substance suspended in an appropriate diluent or the diluent alone (negative control) was administered intraperitoneally once in two days from the day of the first immunization, and as for arthritis developed after the second immunization, clinical symptoms of each ankle joint of all foots were recorded day after day as numerous scores. When the score of the control measured on day 44 after administration of 10 mg/kg of the medicament of the present invention was expresses as 100%, rates of exacerbation (%) of the clinical symptoms of arthritis were 37.5 (Compound No. 4), 76.5 (Compound No. 90), 56.2 (Compound No. 11), 64.0 (Compound No. 88), and 0.0 (Compound No. 83).

[3] = 1 μg/mL, HepG2, TNF-α (40 ng/ml), 4 hours
[4] = 10 μg/mL, HepG2, TNF-α (40 ng/ml), 4 hours
[5] = Homo sapiens, 1 μg/mL, HepG2, TNF-α (40 ng/ml), 4 hours, read-out: Inhibitory Ratio of NF-κ B Activation(%) Drug Concentration 1 μg/mL
[6] = Homo sapiens, 10 μg/mL, HepG2, TNF-α (40 ng/ml), 4 hours, read-out: Inhibitory Ratio of NF-κ B Activation(%) Drug Concentration 10 μg/mL

| SMILES | Inhibitory Ratio of NF-κ B Activation(%) Drug Concentration 1 μg/mL (NF-κ B; [3]) | Inhibitory Ratio of NF-κ B Activation(%) Drug Concentration 10 μg/mL (NF-κ B; [4]) | Inhibitory Ratio of Proliferation(%) Compound Concentration 250 nM [1] | Inhibitory Ratio of Proliferation(%) Compound Concentration 500 nM [1] | IC50 (IL-6) | IC50 (IL-8) | IC50 (PGE2) | further results |
| --- | --- | --- | --- | --- | --- | --- | --- | --- |
| O=C(Nc1cc(C(F)(F)F)cc(C(F)(F)F)c1)c1cc(C=Cc2ccccc2)ccc1O [Compound No. 19] | 95.5% | 96.9% | 34.0% | 88.6% |  |  |  |  |
| CC(C)(C)c1ccc(O)c(C(=O)Nc2cc(C(F)(F)F)cc(C(F)(F)F)c2)c1 [compound 11, N-[3,5-Bis(trifluoromethyl)phenyl]-5-[(1,1-dimethyl)ethyl]-2-hydroxybenzamide] |  |  | 86.7% | 91.4% |  |  |  | IC50 (IL-6; Homo sapiens, Fibroblast, 72 h): 247 nM; IC50 (IL-8; Homo sapiens, Fibroblast, 72 h): 377 nM; inhibition at 1 µg/mL (NF-κ B; [5]): 92.9%; inhibition at 10 µg/mL (NF-κ B; [6]): 98.3%; IC50 (PGE2; Homo sapiens, Fibroblast, 72 h): 389 nM; rates of exacerbation (%) of the clinical symptoms of arthritis [2]: 56.2% |
| O=C(Nc1cc(C(F)(F)F)ccc1Cl)c1cc(Br)ccc1O [Compound No. 90] | 88.9% | 94.1% | 89.5% | 95.2% | 24 nM | 373 nM | 38 nM | inhibition of the production of IL-6 (in words) (IL-6): potently inhibited; also recorded: strongly inhibited; inhibition of the production of IL-8 (in words) (IL-8): potently inhibited; also recorded: strongly inhibited; inhibition of the production of PGE2 (in words) (PGE2): potently inhibited; also recorded: strongly inhibited; rates of exacerbation (%) of the clinical symptoms of arthritis [2]: 76.5% |
| O=C(Nc1cc(C(F)(F)F)cc(C(F)(F)F)c1)c1ccc(Cl)cc1O [Compound No. 51] | 90.5% | 98.2% | 26.2% | 86.6% | 874 nM | 832 nM | 863 nM |  |
| O=C(Nc1cc(C(F)(F)F)cc(C(F)(F)F)c1)c1cc(-c2ccccc2)ccc1O [Compound No. 23] | 91.8% | 96.8% | 31.6% | 89% | 540 nM | 876 nM | 809 nM |  |
| CC(C)(C)C(=O)c1sc(NC(=O)c2cc(Cl)ccc2O)nc1C(C)(C)C [Compound No.199, 5-Chloro-N-{4-[(1,1-dimethyl)ethyl]-5-[(2,2-dimethyl)propionyl]thiazol-2-yl)-2-hydroxybenzamide] |  |  | 35.1% | 84.6% |  |  |  | IC50 (IL-6; Homo sapiens, Fibroblast, 72 h): 309 nM; IC50 (IL-8; Homo sapiens, Fibroblast, 72 h): 458 nM; inhibition at 0.1 µg/mL (NF-κ B; Homo sapiens, HepG2, 4 h, 0.1 μg/ml, comparison table, reporter assay, read-out: Inhibitory Ratio of NF-κB Activation (%) 0.1 μg/ml): 19.6%; inhibition at 1 µg/mL (NF-κ B; Homo sapiens, HepG2, 4 h, 1 μg/ml, comparison table, reporter assay, read-out: Inhibitory Ratio of NF-κB Activation (%) 1 μg/ml): 96.4%; inhibition at 10 µg/mL (NF-κ B; Homo sapiens, HepG2, 4 h, 10 μg/ml, comparison table, reporter assay, read-out: Inhibitory Ratio of NF-κB Activation (%) 10 μg/ml): 98.4%; inhibition at 1 µg/mL (NF-κ B; [5]): 96.4%; inhibition at 10 µg/mL (NF-κ B; [6]): 98.4%; IC50 (PGE2; Homo sapiens, Fibroblast, 72 h): 68 nM |
| O=C(Nc1cc(C(F)(F)F)cc(C(F)(F)F)c1)c1cc(-c2ccsc2)ccc1O [Compound No. 29] | 81.7% | 92.9% | 52.2% | 90.4% |  |  |  |  |
| CC(C)(C)c1nc(NC(=O)c2cc(Br)ccc2O)sc1N1CCN(c2ccccc2)CC1 [Compound No. 207, 5-Bromo-N-{4-[(1,1-dimethyl)ethyl]-5-(4-phenylpiperazin-1-yl)thiazol-2-yl}-2-hydroxybenzamide] |  |  | 52.5% | 84% |  |  |  | IC50 (IL-6; Homo sapiens, Fibroblast, 72 h): 641 nM; IC50 (IL-8; Homo sapiens, Fibroblast, 72 h): 832 nM; inhibition at 1 µg/mL (NF-κ B; [5]): 92.5%; inhibition at 10 µg/mL (NF-κ B; [6]): 95.9%; IC50 (PGE2; Homo sapiens, Fibroblast, 72 h): 834 nM |
| O=C(Nc1cc(C(F)(F)F)cc(C(F)(F)F)c1)c1cc(Br)ccc1O [compound 6] | 94.9% | 98.6% | 88.0% | 94.8% | 352 nM | 351 nM | 358 nM |  |
| CC(C)(C)c1cc(NC(=O)c2cc(Br)ccc2O)cc(C(C)(C)C)c1 [Compound No. 140] | 70.9% | 82.0% | 4.3% | 86.1% | 808 nM |  | 21 nM |  |
| CC(C)(C)C(=O)c1sc(NC(=O)c2cc(Br)ccc2O)nc1C(C)(C)C [Compound No. 201] | 86.8% | 97.5% | 59.8% | 84.4% | 317 nM | 599 nM | 53 nM |  |
| O=C(Nc1cc(C(F)(F)F)cc(C(F)(F)F)c1)c1ccc2ccccc2c1O [Compound No. 71] | 89.6% | 95.0% | 81.6% | 92.4% |  |  |  |  |
| O=C(Nc1cc(C(F)(F)F)ccc1Cl)c1cc(Cl)ccc1O [Compound No. 88, 5-chloro-N-[2-chloro-5-(trifluoromethyl)phenyl]-2-hydroxybenzamide] |  |  |  |  |  |  |  | IC50 (IL-6; Homo sapiens, Fibroblast, 72 h): 88 nM; inhibition of the production of IL-6 (in words) (IL-6): potently inhibited; also recorded: strongly inhibited; inhibition of the production of IL-8 (in words) (IL-8): potently inhibited; also recorded: strongly inhibited; inhibition at 1 µg/mL (NF-κ B; [5]): 94.8%; inhibition at 10 µg/mL (NF-κ B; [6]): 97.1%; IC50 (PGE2; Homo sapiens, Fibroblast, 72 h): 33 nM; inhibition of the production of PGE2 (in words) (PGE2): potently inhibited; also recorded: strongly inhibited; rates of exacerbation (%) of the clinical symptoms of arthritis [2]: 64.0% |
| COc1ccc(Oc2ccc(C(F)(F)F)cc2NC(=O)c2cc(Cl)ccc2O)cc1 [Compound No. 253] | 96.3% | 99.5% | 84.1% | 91% |  |  |  |  |
| COc1cc(NC(=O)c2cc(Br)ccc2O)cc(C(F)(F)F)c1 [Compound No. 93] | 84.5% | 97.2% | 12.1% | 87.2% | 130 nM | 753 nM | 47 nM |  |
| O=C(Nc1cc(C(F)(F)F)ccc1C(F)(F)F)c1cc(Br)ccc1O [Compound No. 268] | 87.1% | 98.4% | 5.6% | 9.8% |  |  |  |  |
